Compound: COc1cc(-c2nn([C@H]3CC[C@H](N4CCN(C(C)=O)CC4)CC3)c3ncnc(N)c23)ccc1NC(=O)c1cc2ccccc2n1C + Cc1nc(NC(=O)N2CCC[C@H]2C(N)=O)sc1-c1ccnc(C(C)(C)C(F)(F)F)c1 [Alpelisib] (partner 2 µM)
Test: relative viability (nuclei count vs DMSO), 5 days (fraction); higher = more cells survive
Details: first compound 1.28 µM
Summary of the method: (§1)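 Relative viability was taken as the ratio of nuclei in treated wells to nuclei in vehicle wells. Lung cancer cell lines in 1536-well plates received compounds by pin tool one day after seeding, either one drug alone or a fixed anchor-drug dose plus five library-drug doses (not always all listed) in √10 steps. Nuclei were counted on 4× images after 5 days of treatment, and values are medians of duplicate plates.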

In order of rising relative viability:
1. NCI-H661  0.376
2. NCI-H1792  0.55
3. NCI-H358  0.555
4. A549  0.57
5. NCI-H1563  0.865
6. ABC-1  1
7. NCI-H650  1.05
8. NCI-H1299  1.08

Compound: CO[C@@H]1[C@H](N(C)C(=O)c2ccccc2)C[C@H]2O[C@]1(C)n1c3ccccc3c3c4c(c5c6ccccc6n2c5c31)C(=O)NC4 [Midostaurin] + Cc1cc(Nc2cc(N3CCN(C)CC3)nc(Sc3ccc(NC(=O)C4CC4)cc3)n2)n[nH]1 [Tozasertib] (partner 0.1 µM)
Test: as above
Details: first compound 0.01 µM
Summary of the method: as §1

In order of rising relative viability:
1. NCI-H358  0.103
2. HCC-366  0.146
3. ABC-1  0.146
4. LK-2  0.175
5. SW 1573  0.177
6. COR-L23  0.204
7. NCI-H2087  0.249
8. EMC-BAC-2  0.267
9. NCI-H838  0.271
10. ChaGo-K-1  0.312
11. NCI-H661  0.362
12. NCI-H1650  0.391
13. NCI-H520  0.434
14. NCI-H1623  0.445
15. NCI-H1648  0.511
16. LCLC-103H  0.522
17. NCI-H522  0.557
18. NCI-H2342  0.57
19. SW 900  0.578
20. NCI-H1993  0.595
21. H3255  0.624
22. NCI-H1666  0.629
23. NCI-H650  0.657
24. NCI-H727  0.704
25. SK-MES-1  0.803
26. NCI-H2085  0.807
27. NCI-H2126  0.861
28. NCI-H596  0.991

Same assay, conditions: first compound 0.03162 µM

In order of falling relative viability:
1. HCC-44  1.04
2. NCI-H596  0.977
3. SK-MES-1  0.819
4. NCI-H2126  0.8
5. NCI-H2085  0.764
6. NCI-H650  0.751
7. NCI-H727  0.704
8. H3255  0.635
9. NCI-H1648  0.609
10. NCI-H522  0.607
11. NCI-H1993  0.606
12. NCI-H1666  0.572
13. SW 900  0.525
14. NCI-H2342  0.487
15. NCI-H1623  0.481
16. LCLC-103H  0.45
17. NCI-H520  0.411
18. NCI-H1650  0.359
19. NCI-H661  0.323
20. NCI-H2087  0.303
21. EMC-BAC-2  0.296
22. NCI-H838  0.283
23. ChaGo-K-1  0.214
24. COR-L23  0.198
25. ABC-1  0.191
26. SW 1573  0.187
27. LK-2  0.147
28. HCC-366  0.126
29. NCI-H358  0.101

Same assay, conditions: first compound 0.1 µM

In order of rising relative viability:
1. SW 1573  0.173
2. NCI-H838  0.262
3. NCI-H1650  0.357
4. NCI-H1623  0.433
5. NCI-H1993  0.545
6. NCI-H2342  0.551
7. NCI-H727  0.575
